Data: patent US20250154154A1 (Relay Binney Street, 2nd Floor, priority 2020, published 2025)

Target: SRC (Homo sapiens, UniProt P12931)
Assay: SRC Biochemical Assay Protocol (microfluidic mobility shift assay, FLPeptide4 substrate)
Method: SRC Biochemical Assay Protocol
Src biochemical kinase activity was measured using a surrogate fluorescent peptide substrate [FLPeptide4; 5-FAM-EGIYGVLFKKK-CONH2 (PerkinElmer Cat. No. 760348)] with a microfluidic mobility shift assay. Reactions were performed in 384-well flat bottom polystyrene microplates (Corning Cat. No. 3570) at a final volume of 20 μL in 50 mM HEPES pH 7.4, 1 mM EGTA, 10 mM MgCl2, 0.01% Brij-35, 2 mM DTT, 0.05% BSA, 1% DMSO. Inhibition experiments were performed with compounds of the invention varying from 0.0017-100 μM with 0.26 nM SRC, 1.5 μM FLPeptide4, and 50 μM ATP. Specifically, 15 μl 1.3× mixtures of SRC+FLPeptide4+compounds were preincubated for 30 minutes at room temperature followed by addition of 5 μL 4×ATP. Reactions were carried out for 90 minutes then quenched with 40 μl 500 mM EDTA. Phosphorylated peptide product was measured with a mobility shift assay using a LabChip® EZ Reader system (PerkinElmer Cat. No. 122919). Inhibition ratios were calculated relative to neutral controls and IC50 values were obtained from dose response data fitted to a 4-parameter logistic model.

Chain of SRC (P12931 whole entry, species assumed): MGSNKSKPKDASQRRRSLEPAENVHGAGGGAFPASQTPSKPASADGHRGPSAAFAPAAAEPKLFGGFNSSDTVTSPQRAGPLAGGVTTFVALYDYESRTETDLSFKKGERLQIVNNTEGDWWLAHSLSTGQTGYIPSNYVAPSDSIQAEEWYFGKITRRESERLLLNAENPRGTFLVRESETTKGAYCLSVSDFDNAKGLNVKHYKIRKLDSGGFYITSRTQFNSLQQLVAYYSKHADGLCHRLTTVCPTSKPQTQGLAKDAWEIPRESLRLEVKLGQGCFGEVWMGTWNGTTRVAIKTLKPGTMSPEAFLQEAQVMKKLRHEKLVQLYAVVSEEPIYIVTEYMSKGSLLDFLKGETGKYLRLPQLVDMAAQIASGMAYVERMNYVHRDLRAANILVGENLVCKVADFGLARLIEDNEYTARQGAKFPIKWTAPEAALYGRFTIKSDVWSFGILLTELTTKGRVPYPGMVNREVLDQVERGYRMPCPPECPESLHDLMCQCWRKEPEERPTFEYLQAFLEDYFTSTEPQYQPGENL

Compound | IC50 [nM]
CC(C)n1c(C#CC2CCC(N)CC2)c(-c2ccc(Oc3ccccc3)cc2)c2c(N)ncnc21 (stereo not drawn) [II-151, 6-((4-aminocyclohexyl)ethynyl)-7-isopropyl-5-(4-phenoxyphenyl)-7H-pyrrolo[2,3-d]pyrimidin-4-amine] | ≤ 10
C=CC(=O)N1CCC(C#Cc2c(-c3ccc(Oc4ccccn4)cc3)c3c(N)ncnc3n2C(C)C)CC1 [Example I-12] | 10 to 1000
C=CC(=O)N1C[C@@H]2[C@@H](C#Cc3c(-c4ccc(Oc5cccc(C)n5)c(OC)c4)c4c(N)nccc4n3CCOC)[C@@H]2C1 [II-78] | 1000 to 10000
CC(C)n1c(C#CC2CCC(NC(=O)CCl)CC2)c(-c2ccc(Oc3ccccc3)cc2)c2c(N)ncnc21 (stereo not drawn) [Example I-38] | 10 to 1000
CC(C)n1c(C#CC2CCN(C#N)CC2)c(-c2ccc(Oc3ccccc3)cc2)c2c(N)ncnc21 [Example I-2] | 10 to 1000
CC(C)n1c(C#CC2CCN(C3CNC3)CC2)c(-c2ccc(Oc3ccccc3)cc2)c2c(N)ncnc21 [II-153, 6-((1-(azetidin-3-yl)piperidin-4-yl)ethynyl)-7-isopropyl-5-(4-phenoxyphenyl)-7H-pyrrolo[2,3-d]pyrimidin-4-amine] | ≤ 10
C=CC(=O)N1CCC(C#Cc2c(-c3ccc(Oc4ccccc4)nc3)c3c(N)ncnc3n2C(C)C)CC1 [Example I-10] | 10 to 1000
C=CC(=O)N1CC(N2CCC(C#Cc3c(-c4ccc(Nc5ccccn5)cc4)c4c(N)ncnc4n3C(C)C)CC2)C1 [Example I-46] | 10 to 1000
C=CC(=O)N1CCC(C#Cc2c(-c3ccc(Oc4cccnc4)cc3)c3c(N)ncnc3n2C(C)C)CC1 [Example I-11] | 10 to 1000
CCC(=O)N1CC(N2CCC(C#Cc3c(-c4ccc(Oc5ccccc5)cc4)c4c(N)ncnc4n3C(C)C)CC2)C1 [II-158, 1-(3-(4-((4-amino-7-isopropyl-5-(4-phenoxyphenyl)-7H-pyrrolo[2,3-d]pyrimidin-6-yl)ethynyl)piperidin-1-yl)azetidin-1-yl)propan-1-one] | 10 to 1000
C=CC(=O)N1CCC(C#Cc2c(-c3ccc(Oc4cnccn4)cc3)c3c(N)ncnc3n2C(C)C)CC1 [Example I-14] | 10 to 1000
C=CC(=O)N1CCC(C#Cc2c(-c3ccc(C(C#N)c4ccccc4)cc3)c3c(N)ncnc3n2C(C)C)CC1 (stereo not drawn) [Example I-30] | 10 to 1000
C=CC(=O)N1CCC(C#Cc2c(-c3ccc(Oc4cccc(C)c4)cc3)c3c(N)ncnc3n2C(C)C)CC1 [Example I-21] | 10 to 1000
C=CC(=O)N1CCC(C#Cc2c(-c3ccc(Oc4ccccc4)cc3)c3c(N)ncnc3n2C(C)C(=O)O)CC1 (stereo not drawn) [Example I-34] | 1000 to 10000
C=CC(=O)N1CCC(C#Cc2c(-c3ccc(Nc4cccc(C)n4)cc3)c3c(N)ncnc3n2C(C)C)CC1 [Example I-22] | 10 to 1000
CC(C)n1c(C#CC2CNC2)c(-c2ccc(Oc3ccccc3)cc2)c2c(N)ncnc21 [II-152, 6-(azetidin-3-ylethynyl)-7-isopropyl-5-(4-phenoxyphenyl)-7H-pyrrolo[2,3-d]pyrimidin-4-amine] | ≤ 10
C=CC(=O)N1CC(N2CCC(C#Cc3c(-c4ccc(Oc5ccccn5)cc4)c4c(N)ncnc4n3C(C)C)CC2)C1 [Example I-47] | 10 to 1000
C=CC(=O)N1CCC(C#Cc2c(-c3ccc(Oc4cccc(Cl)c4)cc3)c3c(N)ncnc3n2C(C)C)CC1 [Example I-36] | 10 to 1000
C=CC(=O)N1CCC(C#Cc2c(-c3ccc(Oc4ccccc4)cc3)c3c(N)ncnc3n2[C@@H](C)CO)CC1 (single isomer, unassigned) [Example I-26] | 10 to 1000

The remaining lines, values ahead:

IC50 [nM] | Compound
10 to 1000 | COc1cc(-c2c(C#CC3CN(C)C3)n(C)c3ncnc(N)c23)ccc1Oc1cccc(C)n1 [III-86]
10 to 1000 | CN(C)C/C=C/C(=O)Nc1ncnc2c1c(-c1ccc(Oc3ccccc3)cc1)c(C#CC1CNC1)n2C1CCOC1 (stereo not drawn) [III-9]
≤ 10 | C=CC(=O)N1CCC(N2CC(C#Cc3c(-c4ccc(Oc5ccccc5)cc4)c4c(N)ncnc4n3[C@H]3CCOC3)C2)CC1 [III-63]
1000 to 10000 | C=CC(=O)NCC#Cc1c(-c2ccc(Oc3ncccn3)c(OC)c2)c2c(N)ncnc2n1C [III-94]
> 10000 | C=CC(=O)N1CCC(N2CC(C#Cc3c(-c4ccc(Oc5ccccc5)c(C#N)c4)c4c(N)ncnc4n3C)C2)CC1 [III-74]
≤ 10 | C=CC(=O)N1C[C@@H]2[C@@H](C#Cc3c(-c4ccc(Oc5ccccc5)c5c4OCO5)c4c(N)ncnc4n3C)[C@@H]2C1 [III-88]
≤ 10 | C=CC(=O)N1CCC(N2CC(C#Cc3c(-c4ccc(Oc5ccccc5)cc4)c4c(N)ncnc4n3[C@H]3C[C@@H](O)C3)C2)CC1 [III-70]
10 to 1000 | C=CC(=O)N1CCC(N2CC(C#Cc3c(-c4ccc(Oc5ccccc5)cc4)c4c(N)ncnc4n3C)C2)CC1 [III-25]
10 to 1000 | C=CC(=O)N1CC[C@H](C#Cc2c(-c3ccc(Oc4ccccc4)cc3)c3c(N)ncnc3n2C)C[C@@H]1C [III-77]
10 to 1000 | C=CC(=O)N1CCC(C#Cc2c(-c3ccc(Oc4ccccc4)cc3)c3c(N)ncnc3n2CCCN(C)C)C1 (stereo not drawn) [III-15]
10 to 1000 | C=CC(=O)N1CCC(N2CC(C#Cc3c(-c4ccc(Oc5ccccc5)cc4)c4c(N)ncnc4n3C)C2)C[C@@H]1CO (stereo partly drawn) [III-67]
10 to 1000 | C=CC(=O)N1CC[C@@H](C#Cc2c(-c3ccc(Oc4ccccc4)cc3)c3c(N)ncnc3n2C)C[C@@H]1C [III-79]
10 to 1000 | CC(CO)n1c(C#CC2CCN(C(=O)/C=C/CN(C)C)C2)c(-c2ccc(Oc3ccccc3)cc2)c2c(N)ncnc21 (stereo not drawn) [III-32]
10 to 1000 | C=CC(=O)N[C@H]1CC[C@H](C#Cc2c(-c3ccc(Oc4ccccc4)cc3)c3c(N)ncnc3n2C)CC1 [III-58]
≤ 10 | C=CC(=O)N1CCC(N2CC(C#Cc3c(-c4ccc(Oc5ccccc5)c5c4OCO5)c4c(N)ncnc4n3C)C2)CC1 [III-85]
10 to 1000 | C=CC(=O)N1CCC(N2CC(C#Cc3c(-c4ccc(Oc5ccccc5)cc4)c4c(N)ncnc4n3C)C2)C[C@H]1CO (stereo partly drawn) [III-64]
10 to 1000 | C=CC(=O)N1CCC(N2CC(C#Cc3c(-c4ccc(Oc5ccccc5)cc4)c4c(N)ncnc4n3C)C2)C[C@@H]1C (stereo partly drawn) [III-47]
10 to 1000 | Nc1ncnc2c1c(-c1ccc(Oc3ccccc3)cc1)c(C#CC1CCN(C(=O)/C=C/CN3CCOCC3)CC1)n2[C@H]1CCOC1 [III-36]
10 to 1000 | C=CC(=O)N1CCC(N2CC(C#Cc3c(-c4ccc(Oc5ccccc5)cc4OC)c4c(N)ncnc4n3C)C2)CC1 [III-80]
≤ 10 | C=CC(=O)N1CCC(O)(C#Cc2c(-c3ccc(Oc4ccccc4)cc3)c3c(N)ncnc3n2C)C1 (stereo not drawn) [III-13]
10 to 1000 | C=CC(=O)N1CC[C@H](N2CC(C#Cc3c(-c4ccc(Oc5ccccc5)cc4)c4c(N)ncnc4n3C)C2)[C@H](C)C1 [III-65]

IC50 [nM] | Compound
10 to 1000 | C=CC(=O)N1CCC(N2CC(O)(C#Cc3c(-c4ccc(Oc5ccccc5)cc4)c4c(N)ncnc4n3C)C2)CC1 [III-23]
10 to 1000 | Cn1c(C#CC2CC3(C2)CN(C(=O)/C=C/CN2CCOCC2)C3)c(-c2ccc(Oc3ccccc3)cc2)c2c(N)ncnc21 [III-71]
10 to 1000 | CN(C)C/C=C/C(=O)N1CCC(C#Cc2c(-c3ccc(Oc4ccccc4)cc3)c3c(N)ncnc3n2C)CC1 [III-14]
10 to 1000 | C=CC(=O)NC1CCN(C2CC(C#Cc3c(-c4ccc(Oc5ccccc5)cc4)c4c(N)ncnc4n3C)C2)CC1 (stereo not drawn) [III-51]
10 to 1000 | Cn1c(C#CC2(O)CCN(C(=O)/C=C/CN3CCOCC3)CC2)c(-c2ccc(Oc3ccccc3)cc2)c2c(N)ncnc21 [III-39]
1000 to 10000 | C=CC(=O)N1CCC(N2CC(N)(C#Cc3c(-c4ccc(Oc5cccc(C)n5)c(OC)c4)c4c(N)ncnc4n3C)C2)CC1 [III-93]
10 to 1000 | C=CC(=O)N1CC2C(C#Cc3c(-c4ccc(Oc5ccccc5)cc4)c4c(N)ncnc4n3C)C2C1 (stereo not drawn) [III-52]
10 to 1000 | CN(C)C/C=C/C(=O)N1CCC(O)(C#Cc2c(-c3ccc(Oc4ccccc4)cc3)c3c(N)ncnc3n2C)CC1 [III-16]
10 to 1000 | Cn1c(C#CC2CN(C(=O)/C=C/CN3CC(O)C3)C2)c(-c2ccc(Oc3ccccc3)cc2)c2c(N)ncnc21 [III-78]
≤ 10 | C=CC(=O)N1CCC(N2CC(C#Cc3c(-c4ccc(Oc5ccccc5)cc4)c4c(N)ncnc4n3C3CCOC3)C2)CC1 (stereo not drawn) [III-53]
10 to 1000 | C=CC(=O)N1CCC(N2CC(C#Cc3c(-c4ccc(Oc5nnc(C)o5)c(OC)c4)c4c(N)ncnc4n3C)C2)CC1 [III-89]
10 to 1000 | C=CC(=O)N1CC[C@H](N2CC(C#Cc3c(-c4ccc(Oc5ccccc5)cc4)c4c(N)ncnc4n3C)C2)[C@@H](C)C1 [III-69]
10 to 1000 | CC(C)n1c(C#Cc2cnn(C)c2)c(-c2ccc(Oc3ccccc3)cc2)c2c(N)ncnc21 [III-7]
10 to 1000 | C=CC(=O)N1CCC(C#Cc2c(-c3ccc(Oc4ccccc4)cc3)c3c(N)ncnc3n2C(C)CO)C1 (stereo not drawn) [III-33]
10 to 1000 | Cn1c(C#CC2CN(C(=O)/C=C/CN3CCC3)C2)c(-c2ccc(Oc3ccccc3)cc2)c2c(N)ncnc21 [III-81]
10 to 1000 | C=CC(=O)N1CCC(O)(C#Cc2c(-c3ccc(Oc4ccccc4)c(Cl)c3)c3c(N)ncnc3n2C)CC1 [III-59]
10 to 1000 | CN(C)C/C=C/C(=O)N1CC(C#Cc2c(-c3ccc(Oc4ccccc4)cc3)c3c(N)ncnc3n2C)C1 [III-84]
10 to 1000 | Cn1c(C#CC2CCN(C(=O)/C=C/CN3CCOCC3)CC2)c(-c2ccc(Oc3ccccc3)cc2)c2c(N)ncnc21 [III-41]
10 to 1000 | C=C(C)C(=O)N1CCC(C#Cc2c(-c3ccc(Oc4ccccc4)cc3)c3c(N)ncnc3n2C)CC1 [III-40]
10 to 1000 | C=CC(=O)N1CCC(N2CC(C#Cc3c(-c4ccc(Oc5cccc(C)n5)cc4)c4c(N)ncnc4n3C)C2)CC1 [III-75]
